Measured values published in US20080125432A1 (Devgen NV, priority 2004, published 2008).
Like-named read-outs stand apart in the source and are kept apart here.

Legend:
[1] = system: C. elegans wild-type strain N2; assay: Same C. elegans pumping assay format using wild-type strain N2; format: in vivo; settings: read-out: EC50 (μM) Wild type worm N2
Text: (§1) The screening of the compounds according to the present invention has been performed in the C. elegans based high-throughput screen for Kv4.3 modulators described above. The method for testing the activity on human Kv4.3 of the compounds according to the invention with C. elegans strains expressing human Kv4.3 for their activity is the same as the method described in WO 03/097682. The method for testing the compounds on wild-type C. elegans strains not expressing human Kv4.3 is the same as the method described in WO 00/63427. Briefly, UG1755 animals have been grown in large numbers and staged young adults (no or only few eggs inside the uterus) have been harvested on the day of screening. Approximately 125 animals in 80 μl buffer have been dispensed per well of a “U shaped 96-well compound plate The compound plate contained already compound material at a final concentration of 30 μM in 0.3% DMSO. After one hour incubation 10 μl of the fluorescent label Calcein AM (CAM) have been added to achieve a final concentration of 5 μM CAM and 0.8% DMSO. After another four hours of incubation at 20° C., the drinking of C. elegans animals (or the “reaction 8 measured by the uptake of CAM) has been stopped by adding 10 μl of a 60 μM ivermectin solution. The fluorescence intensity (counts per second) has been measured 40 minutes after adding ivermectin with the Wallac plate reader at a wavelength of 535 nm (after excitation at 485 nm).
These compounds have been also tested in the same assay format using a C. elegans wild-type strain N2 and the corresponding EC50 has been calculated. The ratio of the EC50s obtained for a compound on the two strains (transgenic expressing human Kv4.3 and wild-type) gives an indication on whether said compound is acting on human Kv4.3. […]

[2] = target: T1, human Kv4.3 (Homo sapiens, UniProt Q9UK17); assay: C. elegans based high-throughput screen for Kv4.3 modulators (pharynx pumping, Calcein AM uptake), transgenic strain UG1755; format: in vivo; settings: for Ratio N2/Kv4.3: EC50 on N2 divided by EC50 on the Kv4.3 expressing strain, cut-off 1.8; for EC50: transgenic strain UG1755 expressing human Kv4.3, read-out: EC50 (μM) Kv4.3 worm
T1 construct: expressed in transfected cells; host or cells: transgenic C. elegans strain UG1755 (N2 injected with plasmid pGV8, integrated array)
T1 sequence (Q9UK17 1-655): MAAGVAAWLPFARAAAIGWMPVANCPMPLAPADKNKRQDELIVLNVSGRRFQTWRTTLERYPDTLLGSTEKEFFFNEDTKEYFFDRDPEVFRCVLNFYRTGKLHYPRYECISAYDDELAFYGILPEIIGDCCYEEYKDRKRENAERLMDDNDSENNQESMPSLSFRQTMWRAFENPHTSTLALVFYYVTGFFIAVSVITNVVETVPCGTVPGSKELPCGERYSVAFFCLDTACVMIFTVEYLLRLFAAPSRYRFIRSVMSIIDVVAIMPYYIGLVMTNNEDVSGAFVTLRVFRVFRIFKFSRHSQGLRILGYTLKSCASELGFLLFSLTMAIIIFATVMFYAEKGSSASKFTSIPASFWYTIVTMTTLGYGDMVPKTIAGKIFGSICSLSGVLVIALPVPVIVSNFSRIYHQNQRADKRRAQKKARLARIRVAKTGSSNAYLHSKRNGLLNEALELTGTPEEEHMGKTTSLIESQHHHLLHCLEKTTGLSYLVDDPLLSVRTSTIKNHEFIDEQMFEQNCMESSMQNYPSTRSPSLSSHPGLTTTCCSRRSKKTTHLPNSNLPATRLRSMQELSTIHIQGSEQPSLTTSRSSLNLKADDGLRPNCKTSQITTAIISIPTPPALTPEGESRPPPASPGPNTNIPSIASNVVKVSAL
Text: A C. elegans based high-throughput screen for Kv4.3 modulators has been used to establish an in vivo SAR (structure-activity relationships: the effect of chemical structure on biological activity) on Kv4.3 for the compounds according to the present invention.
This assay has employed a stable transgenic C. elegans strain that functionally expressed human Kv4.3 in the pharynx and a visible selection GFP maker in body-wall muscle.
The pharynx is the feeding organ of C. elegans and contracts rhythmically 3-4 times per second. The pharynx contraction is controlled by the nervous system via action potentials similar to the human myocyte and can thus be used to study human ion channel physiology in vivo in C. elegans.
Introducing the human Kv4.3 channel into the C. elegans pharynx influences the C. elegans action potential in a characteristic fashion. The additional number of potassium channels increases potassium ion efflux, enhances re-polarization and thereby shortens the action potential duration. […] The shortened action potentials of the C. elegans pharynx resulting from expression of human Kv4.3, changes the pharynx contraction-relaxation cycle and consequently reduces the pumping/feeding in these transgenic animals. This change of pumping is an end-point amenable to high-throughput screening technology. The pumping end-point can be technically translated into a high-throughput read-out by the use of a pro-fluorescent dye. The pro-fluorescent dye is taken up by C. elegans depending on its pumping activity and converted into a fluorescent dye by enzymes located in its intestines. After a defined incubation period, the change of fluorescence intensity in the intestine can be measured with a plate reader.
as §1
The active compounds have been identified and confirmed by dose-response analysis. An EC50 has been calculated and the results are listed under Table 3. Dose-response curves have been obtained at concentrations of 30 μM. EC50 has been calculated using XLfit 2.09 software package.

[3] = system: isolated rat left atria; assay: Ex-vivo organ study: functional refractory period in isolated rat left atria; settings: conc 10^−5 mol/l
Text: The compounds were checked for their effect on the force of contraction, stimulation threshold and for the Functional Refractory Period (FRP) in isolated rat left atria (Rat LA). Rat left atria functionally express the Kv4.3 ion channel, producing the Ito current of the action potential. […] The guinea pig action potential is dominated by hERG like ion channels for the refractory currents. Consequently, activity of hERG channels in vivo should be seen in GP pap muscle preparations.
Left atria were mounted vertically in a two-chambered organ bath containing 100 ml of buffer solution (in mM: NaH2PO4 0.6, MgSO4 0.6, KCl 4.7, NaHCO3 25, glucose 4.5, NaCl-120, CaCl2 2.4). […] The isometric force of the preparations was measured by force transducers, connected to amplifiers, documented by a pen recorder and fed into a computer for evaluation. Force of contraction (FC), threshold stimulus (TS) and the functional refractory period (FRP) were measured at baseline (pre), 20 min after addition of compound, and after washout at the end of the experiment. Threshold stimulus, representing excitability of the tissue, was assessed by varying the voltage applied for electrical stimulation. […] The functional refractory period, representing the time needed for repolarization, was assessed by applying extra stimuli at varying time intervals from the preceding regular pacing stimulus. […]

| Structure (SMILES) | EC50 [1] | Ratio N2/Kv4.3 [2] | EC50 [2] | EC50 ([1]; Caenorhabditis elegans) | dFRP Rat [3] |
| --- | --- | --- | --- | --- | --- |
| Cc1nc(Nc2ccc(Cl)cc2)sc1C(=O)N[C@@H]1CCC[C@H]1OCc1ccccc1 [Compound 30, 2-(4-chloro-phenylamino)-4-methyl-thiazole-5-carboxylic acid (1R,2R)-2-(benzyloxycyclopent-1-yl) amide] | > 60 µM | >6.4 | 9 µM |  |  |
| Cc1nc(Nc2ccc(F)cc2)sc1C(=O)N[C@H](C)c1ccc2ccccc2c1 [Compound 16, 2-(4-fluoro-phenylamino)-4-methyl-thiazole-5-carboxylic acid (R)-1-(naphthalen-2-yl)ethyl amide] |  | >1.8 | 32.1 µM | > 60 µM |  |
| Cc1nc(Nc2ccc(Br)cc2)sc1C(=O)N[C@H](C)c1ccc2ccccc2c1 [Compound 19, 2-(4-bromo-phenylamino)-4-methyl-thiazole-5-carboxylic acid (R)-1-(naphthalen-2-yl)ethyl amide] |  | 4.7 | 7 µM | 33 µM |  |
| Cc1nc(Nc2ccc(Br)cc2)sc1C(=O)N[C@@H](C)c1ccc2ccccc2c1 [Compound 18, 2-(4-bromo-phenylamino)-4-methyl-thiazole-5-carboxylic acid (S)-1-(naphthalen-2-yl)ethyl amide] |  | 2.4 | 13.5 µM | 33 µM |  |
| COc1ccccc1Nc1nc(C)c(C(=O)N[C@H]2CCC[C@@H]2OCc2ccccc2)s1 [Compound 68, 2-(2-methoxy-phenylamino)-4-methyl-thiazole-5-carboxylic acid (1S,2S)-2-(benzyloxycyclopent-1-yl) amide] |  |  |  |  | 13 ms |
